The source made the active and inactive calls. No rule for the calls is given here.
The compounds below were run against Mu-type opioid receptor (Homo sapiens) (UniProt P35372) (assay: mu opioid receptor agonists, OPRM1-only line – cell-based, luminescence, dose response, counter-screen for OPRM1-OPRD1 heterodimer activator project, late-stage follow-up (AID 651689)). Conditions: luminescence activation counterscreen.
Mu-type opioid receptor (Homo sapiens), sequence (P35372 whole entry, looked up): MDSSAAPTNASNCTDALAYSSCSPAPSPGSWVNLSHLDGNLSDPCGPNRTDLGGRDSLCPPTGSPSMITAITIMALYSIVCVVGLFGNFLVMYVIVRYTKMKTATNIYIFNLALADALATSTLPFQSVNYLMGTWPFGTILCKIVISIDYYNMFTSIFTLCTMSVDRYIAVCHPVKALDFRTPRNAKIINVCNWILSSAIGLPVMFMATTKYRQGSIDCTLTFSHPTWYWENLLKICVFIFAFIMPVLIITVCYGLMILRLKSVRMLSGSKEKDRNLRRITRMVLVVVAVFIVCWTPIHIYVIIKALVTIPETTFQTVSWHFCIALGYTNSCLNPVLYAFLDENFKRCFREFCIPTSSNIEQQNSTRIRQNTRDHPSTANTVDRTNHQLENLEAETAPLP

Structure (SMILES) | EC50
CCOC(=O)C1(CC2CCCCO2)CCN(Cc2c(C)cc(C)cc2-n2cccn2)CC1 (stereo unspecified) | 7.4 µM
CCOC(=O)C1(CCOc2ccccc2)CCN(Cc2ccc(O)c(OC)c2)CC1 | > 40 µM (inactive)
CCOC(=O)C1(CCc2ccccc2)CCN(Cc2cc(C)cc(C)c2)CC1 | > 40 µM (inactive)
CCOC(=O)C1(CCc2ccccc2)CCN(Cc2ccc(OC(C)C)c(C#N)c2)CC1 | > 40 µM (inactive)
CCOC(=O)C1(Cc2ccccc2)CCN(Cc2cccn2-c2cccnc2)CC1 | > 40 µM (inactive)
CCOC(=O)C1(CCCc2ccccc2)CCN(Cc2cnn(C)c2)CC1 | > 40 µM (inactive)
CCOC(=O)C1(CCc2ccccc2)CCN(Cc2ccccc2C)CC1 | inactive
CCOC(=O)C1(CCc2ccccc2)CCN(Cc2ccc(NC(C)=O)cc2)CC1 | inactive
CCOC(=O)C1(CCOc2ccccc2)CCN(Cc2cccn2-c2cccnc2)CC1 | inactive
CCOC(=O)C1(Cc2ccccc2)CCN(Cc2cccn2-c2nccs2)CC1 | > 40 µM (inactive)
OCC1(CCc2ccccc2)CCN(Cc2cc(F)ccc2-n2cccn2)CC1 | > 40 µM (inactive)
